In patent US20230285570A1, “THERAPEUTICALLY USEFUL CURE-PRO MOLECULES FOR E3 LIGASE MEDIATED DEGRADATION OF PROTEINS, AND METHODS OF MAKING AND USING THEM” (CORNELL UNIVERSITY, priority 2020, published 2023):
“Also recorded” adds a separate entry of the source.

Tests used:
BRD3 = biological target: T1, BRD3 (Homo sapiens, UniProt Q15059); assay: BRD protein family degradation in HCT116 cells, Western blot: BRD3; format: cell-based; settings: 1:1 with MDM2 ligands 8310 and 8312 (each), HCT116, 24 h, 100 nM-10 μM
T1 construct: endogenous in cells; host or cells: HCT116
Description: (§1) Namalwa, Ramosm HeLa, MCF7, or HT29 HCT116 cells (2.5-3×10^6) were treated for 24 hours with the indicated compounds solubilized in DMSO. The cells were washed in ice-cold PBS and were then lysed in RIPA lysis buffer (150 mM NaCl, 5 mM EDTA, 1% NP-40, 0.5% sodium deoxycholate, 0.1% SDS, 50 mM Tris, pH 8.0.) with Roche protease inhibitor complete cocktail and phosphatase inhibitors (10 mM sodium fluoride, 10 mM sodium pyrophosphate, 1 mM sodium orthovanadate and 20 mM β-glycerophosphate). The total protein concentrations were determined by Bradford Protein Assay (Pierce) and 10-20 μg of protein was loaded onto 4-15% Tris-Glycine gradient gels (Biorad). After standard gel electrophoresis, the separated proteins were transferred to PVDF membrane by wet transfer. The immunoblots were then blocked for 1 hour in 5% skim milk in TBST or 5% BSA in TBST, according to manufacturer's instructions, before an overnight incubation at 4° C. with indicated antibodies and membranes. […] Signal was detected with ECL Western Blotting Substrate (Pierce) and X-ray film processed with a Konica SRX-101 X-ray film processor or captured by Bio-Rad's Chemidoc Imaging system. […]

BRD2 = biological target: T2, BRD2 (Homo sapiens, UniProt P25440); assay: BRD protein family degradation in HCT116 cells, Western blot: BRD2; format: cell-based; settings: 1:1 with MDM2 ligands 8310 and 8312 (each), HCT116, 24 h, 100 nM-10 μM
T2 construct: endogenous in cells; host or cells: HCT116
Description: as §1

SLC19A1 = assay: RT-PCR of c-MYC downstream target gene SLC19A1 in HeLa cells; format: cell-based, Human; settings: 10 μM each, 24 h
Description: The suppression of the expression of the downstream c-MYC target, SLC19A1, was measured by RT-PCR using Power SYBR® Green Cells-to-Ct™ Kit (Life Technologies). Adherent cells were plated on 96 well plates at 5,000 cells per well were treated for 24 h with monomer compounds and compounds capable of reversible interactions (1 nM-100 μM). Cells were subsequently washed in ice-cold PBS processed according to the manufacturer's instructions. Quantitative real-time PCR was performed using a ViiA™ 7 Real-time PCR System (Applied Biosystems, Foster City, Calif., USA). GAPDH and ACTB served as internal controls.
HeLa cells (1×10^4) were treated for 24 hours in 96 well plates with the compounds solubilized in DMSO. Compounds were added at 10 μM each and RNA expression measured by the Cells-to Ct method described above (Thermofisher).

T1 sequence (Q15059 whole entry): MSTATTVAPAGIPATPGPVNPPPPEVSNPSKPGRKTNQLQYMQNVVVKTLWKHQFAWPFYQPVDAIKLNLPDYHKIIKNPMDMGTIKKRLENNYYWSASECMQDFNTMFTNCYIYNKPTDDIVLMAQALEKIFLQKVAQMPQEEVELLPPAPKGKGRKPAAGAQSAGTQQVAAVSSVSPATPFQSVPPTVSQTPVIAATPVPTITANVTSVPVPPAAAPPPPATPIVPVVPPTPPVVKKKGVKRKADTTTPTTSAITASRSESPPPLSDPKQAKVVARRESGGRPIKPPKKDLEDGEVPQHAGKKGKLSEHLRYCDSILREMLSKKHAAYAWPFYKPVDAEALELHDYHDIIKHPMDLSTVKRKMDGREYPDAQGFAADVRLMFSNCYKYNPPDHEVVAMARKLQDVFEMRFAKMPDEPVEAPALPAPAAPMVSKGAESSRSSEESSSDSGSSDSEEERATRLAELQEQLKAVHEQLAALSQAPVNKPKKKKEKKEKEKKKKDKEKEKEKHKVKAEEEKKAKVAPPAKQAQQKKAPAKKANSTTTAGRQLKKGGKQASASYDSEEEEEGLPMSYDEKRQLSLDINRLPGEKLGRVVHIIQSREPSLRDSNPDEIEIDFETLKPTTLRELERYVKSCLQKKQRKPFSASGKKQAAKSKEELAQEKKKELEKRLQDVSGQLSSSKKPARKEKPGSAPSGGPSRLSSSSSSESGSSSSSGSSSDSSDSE
T2 sequence (P25440 whole entry): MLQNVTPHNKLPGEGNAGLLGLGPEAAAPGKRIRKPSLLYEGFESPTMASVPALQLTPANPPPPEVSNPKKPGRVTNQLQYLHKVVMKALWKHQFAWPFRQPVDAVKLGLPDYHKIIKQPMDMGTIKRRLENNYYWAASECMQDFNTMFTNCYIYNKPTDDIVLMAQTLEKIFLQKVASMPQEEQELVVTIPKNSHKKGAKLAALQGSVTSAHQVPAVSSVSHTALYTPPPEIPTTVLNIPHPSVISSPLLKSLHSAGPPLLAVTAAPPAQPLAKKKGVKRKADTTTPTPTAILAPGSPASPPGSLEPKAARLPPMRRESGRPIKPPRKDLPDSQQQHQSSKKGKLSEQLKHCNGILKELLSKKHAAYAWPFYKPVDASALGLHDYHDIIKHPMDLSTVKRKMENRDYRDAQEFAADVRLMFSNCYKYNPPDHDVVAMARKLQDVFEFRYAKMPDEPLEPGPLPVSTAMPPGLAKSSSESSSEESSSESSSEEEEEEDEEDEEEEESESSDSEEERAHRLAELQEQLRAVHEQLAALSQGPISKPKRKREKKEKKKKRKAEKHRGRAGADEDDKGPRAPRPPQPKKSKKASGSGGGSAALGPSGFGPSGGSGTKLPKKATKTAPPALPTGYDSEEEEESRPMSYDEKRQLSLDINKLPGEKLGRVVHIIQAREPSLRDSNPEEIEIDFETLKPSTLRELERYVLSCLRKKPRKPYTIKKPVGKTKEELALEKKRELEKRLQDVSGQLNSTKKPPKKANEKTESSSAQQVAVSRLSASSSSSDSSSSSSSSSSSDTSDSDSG

With `CCNC(=O)C[C@@H]1N=C(c2ccc(Cl)cc2)c2cc(OCCOCCNC(=O)c3cccc(O)c3O)ccc2-n2c(C)nnc21` [BRD-N39, N-(2-(2-(((4S)-6-(4-chlorophenyl)-4-(2-(ethylamino)-2-oxoethyl)-1-methyl-4H-benzo[f][1,2,4]triazolo[4,3-a][1,4]diazepin-8-yl)oxy)ethoxy)ethyl)-2,3-dihydroxybenzamide] the BRD3 degradation (BRD3) was “degradation of BRD3; also recorded: Degradation is evident”, the BRD2 degradation (BRD2) was “BRD2 to a lesser extent; also recorded: Degradation is evident” and the “suppression of SLC19A1 expression” value (SLC19A1; combined with MDM2 ligand 8310, HeLa) was “suppression to levels comparable to that of JQ1 treatment”. The “suppression of SLC19A1 expression” value (SLC19A1; combined with MDM2 ligand 8312, HeLa) was “Complete suppression; also recorded: completely suppressed”.
